In publication PMC11408619 (2024):

System: Bsu PreQ1 RNA (MFS construct) (RNA, riboswitch) UCGGCGAUCUACGCAGCGACAUAAUAAGAGGUUCUAGCUACACCCUCUAUAAAAAACUAAUAACAACCACUUCCUAAUCUGUCAUCUUCUG
Experiment: magnetic force spectroscopy, fraction of high-force cycles
Conditions: 100 mM KCl, 1 mM MgCl2; 50 mM HEPES pH 7.4, 1% DMSO, 22 °C

With NCc1c[nH]c2nc(N)[nH]c(=O)c12 the KD/EC50 was 58.8 ± 6.3 nM.
